Experiment: Solubility of nonionic surfactant in SDBS
Type: physicochemical
Details: in combination with SDBS at the stated ratio

- solubility in SDBS: insoluble
Substance: cetearyl glucoside [CGlucoside]
